The supplement of paper PMC11451515

Assays:
Details in all cases: 48 h
P12-Ichikawa [1] = test: cell viability relative to DMSO control; higher = less cytotoxic
Summary of the method: (§1)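 NOMO1 or SEM (500 cells/well) or P12-Ichikawa (1000 cells/well) leukemia cells were adapted for at least four passages in each medium. They were seeded in 1536-well plates (5 μl) and pin-dosed with library compounds in DMSO over an 11-point threefold series, 47 μM to 0.79 nM. CellTiter-Glo One luminescence was read after 48 h at 37°C. Viability is the per-plate percentage relative to DMSO wells, with cell-free wells as background.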

SEM cells [2] = test: as above
Summary of the method: as §1

NOMO1 [3] = test: as above
Summary of the method: as §1

P12-Ichikawa [4] = test: AUC of viability dose-response curve (% viability x log10 dose units); higher = less sensitive
Summary of the method: (§2)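 In 1536-well plates, leukemia cells adapted to each medium (500 or 1000 cells/well) were exposed for 48 h at 37°C to library compounds in DMSO across 11 threefold doses, 47 μM down to 0.79 nM. Viability was read by CellTiter-Glo One luminescence and normalised per plate to DMSO and cell-free wells. A four-parameter log-logistic fit over log10 doses was integrated by trapezoidal rule. This yielded the area under the curve, with over-full-viability curves scaled and quality-control failures dropped.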

SEM cells [5] = test: as above
Summary of the method: as §2

NOMO1 [6] = test: as above
Summary of the method: as §2

CN[C@@H](C)C(=O)N[C@H]1CN(C(=O)CC(C)C)CC[C@H]2CC[C@@H](C(=O)NC(c3ccccc3)c3ccccc3)N2C1=O
cell viability [%]
Details	NOMO1 [3]	P12-Ichikawa [1]	SEM cells [2]
HPLM + 10% dialyzed FBS, 0.000781 µM	96.2	98.3	76.3
HPLM + 10% dialyzed FBS, 0.00234 µM	118	104	90.5
HPLM + 10% dialyzed FBS, 0.00702 µM	112	107	98.3
HPLM + 10% dialyzed FBS, 0.0211 µM	119	111	100
HPLM + 10% dialyzed FBS, 0.0632 µM	82.9	110	98.1
HPLM + 10% dialyzed FBS, 0.19 µM	85.2	102	93.7
HPLM + 10% dialyzed FBS, 0.569 µM	74	103	99
HPLM + 10% dialyzed FBS, 1.71 µM	54.5	100	103
HPLM + 10% dialyzed FBS, 5.12 µM	17.4	96.7	99.9
HPLM + 10% dialyzed FBS, 15.4 µM	13.9	14.8	71.4
HPLM + 10% dialyzed FBS, 46.1 µM	11.3	10.2	41
RPMI 5 mM glucose + 10% FBS, 0.000781 µM	102	96.8	107
RPMI 5 mM glucose + 10% FBS, 0.00234 µM	105	110	103
RPMI 5 mM glucose + 10% FBS, 0.00702 µM	104	109	105
RPMI 5 mM glucose + 10% FBS, 0.0211 µM	100	111	110
RPMI 5 mM glucose + 10% FBS, 0.0632 µM	96.9	114	104
RPMI 5 mM glucose + 10% FBS, 0.19 µM	91.6	112	102
RPMI 5 mM glucose + 10% FBS, 0.569 µM	95.8	112	96.7
RPMI 5 mM glucose + 10% FBS, 1.71 µM	37	108	83.5
RPMI 5 mM glucose + 10% FBS, 5.12 µM	10.6	87.3	74.2
RPMI 5 mM glucose + 10% FBS, 15.4 µM	10.2	18.1	56.5
RPMI 5 mM glucose + 10% FBS, 46.1 µM	6.19	10.2	38.5
RPMI 5 mM glucose + 10% dialyzed FBS, 0.000781 µM	85.3	90.1	95.5
RPMI 5 mM glucose + 10% dialyzed FBS, 0.00234 µM	98.6	113	86.1
RPMI 5 mM glucose + 10% dialyzed FBS, 0.00702 µM	92.6	101	92.8
RPMI 5 mM glucose + 10% dialyzed FBS, 0.0211 µM	94.1	115	104
RPMI 5 mM glucose + 10% dialyzed FBS, 0.0632 µM	121	105	106
RPMI 5 mM glucose + 10% dialyzed FBS, 0.19 µM	91.8	111	97.9
RPMI 5 mM glucose + 10% dialyzed FBS, 0.569 µM	97.1	112	102
RPMI 5 mM glucose + 10% dialyzed FBS, 1.71 µM	90.3	107	95.1
RPMI 5 mM glucose + 10% dialyzed FBS, 5.12 µM	17.7	97.8	77.7
RPMI 5 mM glucose + 10% dialyzed FBS, 15.4 µM	13.9	43.3	61
RPMI 5 mM glucose + 10% dialyzed FBS, 46.1 µM	9.5	16.1	36.2

AUC of viability dose-response curve
Details	NOMO1 [6]	P12-Ichikawa [4]	SEM cells [5]
HPLM + 10% dialyzed FBS	317	411	431
RPMI 5 mM glucose + 10% FBS	336	406	406
RPMI 5 mM glucose + 10% dialyzed FBS	361	424	423
